The values below come from ChEMBL document CHEMBL1135281, “Solid-phase synthesis and pharmacological evaluation of analogues of PhTX-12-A potent and selective nicotinic acetylcholine receptor antagonist” (Bioorg Med Chem Lett, 2002).

Assay [1] addresses T1, Acetylcholine receptor subunit delta (Homo sapiens, UniProt Q07001). As to the kind of experiment: Compound was evaluated for inhibitory activity against human embryonic muscle type Nicotinic acetylcholine receptor specifically delta-subunit expressed in TE-671 cell (at holding potential -100 mV). It counts as cell-based.
Assay [2] addresses T1, Acetylcholine receptor subunit delta. The experiment in a line: Compound was evaluated for inhibitory activity against human embryonic muscle type Nicotinic acetylcholine receptor specifically delta-subunit expressed in TE-671 cell (at holding potential -50 mV). It counts as cell-based.

T1 sequence (Q07001 whole entry): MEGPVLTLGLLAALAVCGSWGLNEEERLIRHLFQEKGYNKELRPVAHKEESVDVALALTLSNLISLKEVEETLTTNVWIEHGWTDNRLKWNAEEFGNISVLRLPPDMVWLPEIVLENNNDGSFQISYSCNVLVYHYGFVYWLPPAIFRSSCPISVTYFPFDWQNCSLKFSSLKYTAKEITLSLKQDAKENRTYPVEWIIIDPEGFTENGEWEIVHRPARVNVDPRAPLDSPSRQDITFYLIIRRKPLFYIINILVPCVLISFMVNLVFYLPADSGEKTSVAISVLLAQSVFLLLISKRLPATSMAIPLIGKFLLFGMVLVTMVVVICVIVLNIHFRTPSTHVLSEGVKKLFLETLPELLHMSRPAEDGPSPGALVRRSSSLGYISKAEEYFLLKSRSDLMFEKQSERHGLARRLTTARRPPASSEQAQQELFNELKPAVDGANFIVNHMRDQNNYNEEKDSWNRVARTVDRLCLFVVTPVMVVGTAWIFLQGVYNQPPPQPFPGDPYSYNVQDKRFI

With `CCCC(=O)N[C@@H](Cc1ccc(O)cc1)C(=O)NCCCNCCCCNCCCN` [PHILANTHOTOXIN 343], it took 75 µM to reach half-maximal inhibition in assay [1] (IC50).
With `CCCC(=O)N[C@@H](Cc1ccc(O)cc1)C(=O)NCCCCCCCCCCN`, the IC50 (usually the point on the concentration scale where inhibition reaches its midpoint) was 8.66 µM in assay [2] and roughly 10 µM in assay [1].
As for `CCCC(=O)N[C@@H](Cc1ccc(O)cc1)C(=O)NCCCCCCCCN`, the figures for the IC50 in assay [2] and in assay [1] were 9.76 µM and 5.03 µM, respectively.
Regarding `CCCC(=O)N[C@@H](Cc1ccc(O)cc1)C(=O)NCCCCCCCCCCCN`, the IC50 in assay [2] was 0.58 µM; in assay [1], 0.46 µM.
Taken in the same sequence, the figures for `CCCC(=O)N[C@@H](Cc1ccc(O)cc1)C(=O)NCCCCCCCN` were 10.5 µM and 5.44 µM.
Regarding `CCCC(=O)N[C@@H](Cc1ccc(O)cc1)C(=O)NCCCCCCCCCCCCN`, the figures for the IC50 in assay [2] and in assay [1] were 1.53 µM and 0.93 µM, respectively.
With `CCCC(=O)N[C@@H](Cc1ccc(O)cc1)C(=O)NCCCCCCCCCN`, the IC50 in assay [2] was determined as 13.3 µM; in assay [1] it was 15.1 µM.
